Measurements published in ChEMBL document CHEMBL1157271, “Maprouneacin, a new daphnane diterpenoid with potent antihyperglycemic activity from Maprounea africana” (1999).

How the values were obtained:
Type in all cases: functional
[1] = tested on: Mus musculus; assay: Antihyperglycemic activity in NIDDM db/db mouse model assessed as change in plasma glucose level at 0.5 mg/kg, qd after 3 hrs relative to pre-dosed control
[2] = tested on: Mus musculus; assay: Antihyperglycemic activity in NIDDM db/db mouse model assessed as change in plasma glucose level at 0.5 mg/kg, qd after 27 hrs relative to pre-dosed control
[3] = tested on: Mus musculus; assay: Antihyperglycemic activity in NIDDM db/db mouse model assessed as body weight per mouse at 0.5 mg/kg, qd after 24 hrs
[4] = tested on: Mus musculus; assay: Antihyperglycemic activity in NIDDM db/db mouse model assessed as food intake per mouse at 0.5 mg/kg, qd

For `CCCCC/C=C/C=C/[C@]12O[C@@H]3[C@@H]4[C@@H]5O[C@]5(CO)[C@@H](O)[C@]5(O)C(=O)C(C)=C[C@H]5[C@@]4(O1)[C@H](COC(=O)CC(C)C)[C@H](OC(=O)CC(C)C)[C@]3([C@]1(C)CO1)O2` [MAPROUNEACIN], the Activity [1] was -254 mg/dL, the Activity [2] was -246 mg/dL and the Activity [3] was 37.8 g. The Activity [4] was 0.1 g.
